# Measured values: ChEMBL document CHEMBL1287745, “AdoHcy hydrolase of Trichomonas vaginalis: studies of the effects of 5'-modified adenosine analogues and related 6-N-cyclopropyl derivatives” (Bioorg Med Chem Lett, 2010)
# “And” between values parts separate entries of the source, which are not always exact repeats. Equal entries are not always repeated.
# Key:
# Trichomonas vaginalis [1] = test: […] activity against Trichomonas vaginalis T1; type: functional, organism-based
# Trichomonas vaginalis [2] = test: Antiparasitic activity against Trichomonas vaginalis T1 at […] after 24 hrs by hemocytometric analysis; type: functional
# Trypanosoma = test: Antimicrobial activity against Trypanosoma; type: functional, organism-based
# [3] = Trichomonas vaginalis, T1, read-out: IC50
Compound,IC50 (Trichomonas vaginalis [1]; [3]),growth inhibition (GI) (Trichomonas vaginalis [2]),other results
Nc1ncnc2c1ncn2[C@@H]1O[C@H](C=NO)[C@@H](O)[C@H]1O,40 µM and 11 µg/mL,93%,
Nc1ncnc2c1ncn2[C@@H]1C[C@H](C(=O)O)[C@@H](O)[C@H]1O,,36%,
Nc1ncnc2c1ncn2CCC(O)CO (stereo not given),,11%,
O[C@@H]1[C@H](O)[C@@H](C=CI)O[C@H]1n1cnc2c(NC3CC3)ncnc21,,24%,"IC50 (Trichomonas vaginalis [1]): Not Active; IC50 (Trypanosoma; Trypanosoma, read-out: IC50): 12 µg/mL"
O[C@@H]1[C@H](O)[C@@H](C=CF)O[C@H]1n1cnc2c(NC3CC3)ncnc21,,10%,"IC50 (Trypanosoma; Trypanosoma, read-out: IC50): 19 µg/mL"
Nc1ncnc2c1ncn2[C@@H]1O[C@H](/C=C/C#CI)[C@@H](O)[C@H]1O,,34%,
ON=C[C@H]1O[C@@H](n2cnc3c(NC4CC4)ncnc32)[C@H](O)[C@@H]1O,,41%,IC50 (Trypanosoma): Not Active
COC(=O)[C@H]1O[C@@H](n2cnc3c(N)ncnc32)[C@H](O)[C@@H]1O,,4%,
Nc1ncnc2c1ncn2[C@@H]1O[C@H](/C=C\I)[C@@H](O)[C@H]1O,76 µM and 24 µg/mL,81%,
O[C@@H]1[C@H](O)[C@@H](C=C(Br)Br)O[C@H]1n1cnc2c(NC3CC3)ncnc21,,12%,IC50 (Trypanosoma): Not Active
Nc1ncnc2c1ncn2[C@@H]1O[C@H](/C=C/I)[C@@H](O)[C@H]1O,60 µM and 19 µg/mL,85%,
COC(=O)C(O)CCn1cnc2c(N)ncnc21 (stereo not given),,16%,
Nc1ncnc2c1ncn2[C@@H]1O[C@H](/C=C/CCCC(=O)O)[C@@H](O)[C@H]1O,,22%,
Nc1ncnc2c1ncn2[C@@H]1O[C@H](C(=O)O)[C@@H](O)[C@H]1O [5'-CARBOXY ADENOSINE],,17%,
Nc1ncnc2c1ncn2[C@@H]1C[C@H](CO)[C@@H](O)[C@H]1O [ARISTEROMYCIN],10 µM and 3 µg/mL,95%,
Cc1ncc([N+](=O)[O-])n1CCO [METRONIDAZOLE],0.12 µg/mL,,
